The record followed here is article PMC8597745, “The Antimicrobial Peptide MK58911-NH2 Acts on Planktonic, Biofilm, and Intramacrophage Cells of Cryptococcus neoformans” (Antimicrobial Agents and Chemotherapy, 2021).

In series [1] the test system is C. neoformans. Description: microbe, parasite or virus in culture. The settings on record: 48 h; for C. neoformans MIC: 37°C, RPMI 1640, visual reading; for MIC: Cryptococcus neoformans, read-out: C. neoformans MIC. The method, then:
(§1) C. neoformans ATCC 90112 and C. gattii ATCC 56990 were purchased from the collection of the Laboratory of Clinical Mycology, Faculty of Pharmaceutical Sciences of UNESP, Araraquara, Brazil. Cryptococcus species were grown at 30°C for 48 to 72 h in Sabouraud dextrose agar.
(§2) Anti-Cryptococcus activity was determined by the broth microdilution method according to document M27-A3 from the Clinical and Laboratory Standards Institute ([47]). Briefly, 100 μl of a fungal suspension at […] in RPMI 1640 medium was added to each well of the 96-well plate. Subsequently, 100 μl of MK58911-NH2, MK58911(1–7)-OH, MK58911(8–14)-NH2, MK58911(4–11)-OH, and MH58911 (0.48 to 250 μg/ml); amphotericin B (0.016 to 8 μg/ml); and fluconazole (0.063 to 32 μg/ml), all diluted in RPMI 1640 medium, was added to the plate. The fungal suspension and RPMI 1640 medium were used as the positive and negative controls, respectively. The plate was incubated at 37°C at 150 rpm for 48 h. Next, fungal growth was visually observed, and the MIC was determined. Three independent experiments were performed.

The test system of series [2] is C. gattii. Nature of the series: microbe, parasite or virus in culture. The settings on record: 48 h; for C. gattii MIC: 37°C, RPMI 1640, visual reading; for MIC: Cryptococcus gattii, read-out: C. gattii MIC. On the procedure:
as §1, §2

Series [3] in a line: in vitro. The note with it: human, MRC5 pulmonary fibroblasts.
Protocol: (§4) The impact of peptides on the viability of pulmonary fibroblasts (MRC5) was also evaluated. Cells were cultured in Dulbecco’s high-glucose modified Eagle medium (DMEM; Gibco, Thermo Fisher Scientific) supplemented with 10% fetal bovine serum (FBS) in 25-cm^2 flasks. For the assay, cells were seeded into 96-well plates at 5 × 10^4 cells/well. The cells were left to grow at 37°C in a 5% CO2 incubator for 24 h until they reached confluence. […] DMEM and dimethyl sulfoxide (DMSO) were used as the positive and negative controls, respectively. The plates were then incubated at 37°C in a 5% CO2 incubator for 24 h. Resazurin (0.01%; Sigma-Aldrich) was then used to assess the viability of the cells according to the manufacturer’s instructions. After 4 h of incubation at 37°C in a 5% CO2 incubator, the fluorescence intensity was measured using a microplate reader (BioTek) at 570 to 600 nm. The fluorescence values were normalized by the positive control and expressed as a percentage of metabolic activity. Values for the 50% inhibitory concentration (IC50) were calculated. Three independent experiments were performed.
The subject of series [4] is intramacrophage C. neoformans. Description: Intramacrophage activity (J774 macrophages infected with C. neoformans, CFU). The note with it: treatment at the MIC, 24 h; control 4.5 × 10^3 CFU/well. The class given is cell-based, Cryptococcus neoformans. The method, then: The medium was used as a positive control. […] Three independent experiments were performed.
The test system of series [5] is C. neoformans mature biofilm. Nature of the series: Antibiofilm activity, mature biofilm at 48 h (XTT reduction). The class given is cell-based, Cryptococcus neoformans.
Protocol: (§5) Briefly, C. neoformans was grown in Sabouraud dextrose broth at 30°C at 150 rpm for 24 h. To evaluate the effect of peptides on biofilm formation, a fungal suspension of 1 × 10^7 cells/ml in minimal medium (20 mg/ml thiamine, 30 mM glucose, 26 mM glycine, 20 mM MgSO4·7H2O, 58.8 mM KH2PO4) was prepared, and 100 μl of the suspension was added to individual wells of 96-well polystyrene plates (TPP, Switzerland). […] The plate was incubated at 37°C for 48 h. To evaluate the effect of the peptides on the mature biofilm, 100 μl of the fungal suspension was added to individual wells of a 96-well plate, and the plate was incubated at 37°C for 48 h. After that period, the supernatant was removed, and the peptides and drugs were added. The plate was again incubated at 37°C for 48 h. The metabolic activity of the biofilms was quantified by the 2,3-bis(2-methoxy-4-nitro-5-sulfophenyl)-5-[(phenylamino)carbonyl]-2H-tetrazolium hydroxide (XTT) reduction assay. For this, a solution with 50 μl of XTT (1 mg/ml in PBS) and 4 μl of menadione (1 mM in ethanol; Sigma-Aldrich, São Paulo, SP, Brazil) was added to each well of the 96-well plate. After 3 h of incubation at 37°C, the fluorescence intensity was measured using a microplate reader (BioTek) at 490 nm. Subsequently, the percentage of metabolic activity of the biofilm treated with peptides/drugs was compared to that of the untreated control. […]
For series [6], the system named is C. neoformans. Nature of the series: Zebrafish embryo immersion infection model, fungal burden (CFU). The class given is in vivo, zebrafish embryos. The note with it: immersion infection 1 × 10^6 cells/ml, treatment at the MIC for 24 h. The method, then:
(§3) A zebrafish embryo infection model by immersion was used, as previously described for C. albicans, with some modifications ([22]). The housing and breeding of the fish used in this study received appropriate institutional approvals (permit number 01.0082.2014). Briefly, 15 zebrafish embryos at 24 h postfertilization (hpf) and cultured in embryo medium at 28°C were used. Embryos were coincubated in wells with C. neoformans at 1 × 10^6 cells/ml by immersion. The plate was incubated at 28°C at 80 rpm for 24 h. Subsequently, the embryos were washed twice with embryo medium and transferred to a 96-well plate (1 embryo/well). Next, 100 μl of MK58911-NH2, amphotericin B, and fluconazole, all diluted in embryo medium and at the MIC, was added to the wells. The plate was incubated at 28°C at 80 rpm for 24 h. After that, the embryos were lysed individually in 2% Triton X-100–PBS using a 26-gauge needle. A […] dilution was performed in PBS, and 10 μl was plated onto Sabouraud dextrose agar containing 50 mg/liter chloramphenicol. […] The groups were tested in triplicate, and two independent experiments were performed. Images of some embryos 4 h after infection with C. neoformans, labeled with calcofluor white, were acquired with an In Cell Analyzer 2000 microscope (GE).

Series [7] deals with zebrafish embryos. Description: Survival of infected zebrafish embryos under treatment. The class given is in vivo. The settings on record: treatment at the MIC for 24 h. The method, then: as §3
Series [8] in a line: in vitro. The settings on record: mouse, J774 macrophages.
Protocol: as §4
The impact of peptides on the viability of macrophages (J774) was also evaluated as described above for MRC5 cells.
For series [9], the system named is C. neoformans biofilm formation. Description: Antibiofilm activity, biofilm formation at 0 h (XTT reduction). Type of series: cell-based, Cryptococcus neoformans. On the technique in general: Tetrazolium assays rely on reduction of a dye to a coloured formazan, in cell work by metabolically active cells.
Protocol: as §5

≈ marks a conversion by molar mass, not a printed value. No end group written: not given here.

Consider “KKVKGML-NH2 [MK58911(8–14)-NH2, KKVKGML-NH2]”, for which the “C. neoformans MIC” value in series [1] was over 250 µg/mL. Further, the “C. gattii MIC” value in [2] is over 250 µg/mL. For the same compound, in series [3], the IC50 (usually the concentration needed to halve the response being measured) at 24 h was over 500 µg/mL.
Consider `OC(Cn1cncn1)(Cn1cncn1)c1ccc(F)cc1F` [Fluconazole], for which the “intramacrophagic fungal burden (average)” value in [4] was 1.8 × 10^3 CFU/well. Besides, the MIC came to 1 µg/mL (≈ 3.27 µM) in [1] and 8 µg/mL (≈ 26.1 µM) in series [2]. Moreover, in [5] (biofilms in vitro, corroborates ref 13), the “susceptibility of C. neoformans biofilms” value is “resistant”. Further, in [6], the “fungal burden (CFU) of embryos' chorion vs untreated control” value was “did not reduce the fungal burden”.
In the case of “INWLKIAKKVKGML-NH2 [MK58911-NH2, INWLKIAKKVKGML-NH2]”, the “C. neoformans MIC” value in [1] came out at 31.25 µg/mL. Further, in [2], the “C. gattii MIC” value was 15.63 µg/mL. Further, the “embryo survival under treatment” value in [7] was “All embryos survived”. Besides, the results for the IC50 at 24 h in series [3] and in series [8] were over 500 µg/mL and 62.5 µg/mL, respectively.
On to `C[C@@H]1[C@H](O)[C@@H](C)/C=C/C=C/C=C/C=C/C=C/C=C/C=C/[C@H](O[C@@H]2O[C@H](C)[C@@H](O)[C@H](N)[C@@H]2O)C[C@@H]2O[C@](O)(C[C@@H](O)C[C@@H](O)[C@H](O)CC[C@@H](O)C[C@@H](O)CC(=O)O[C@H]1C)C[C@H](O)[C@H]2C(=O)O` [Amphotericin B], for which the “intramacrophagic fungal burden (average)” value in series [4] is given as 1.1 × 10^3 CFU/well. Besides, the MIC in series [1] and in series [2] was 0.125 µg/mL (≈ 0.135 µM) in each case. In addition, the “concentration at which mature biofilms can be inhibited” value in series [5] (mature biofilms) is over 2 µg/mL. Further, the “concentration at which formation of C. neoformans biofilms can be prevented” value in [9] was over 0.5 µg/mL. In addition, the “fungal burden (CFU) of embryos' chorion vs untreated control” value in [6] is given as “significant reduction in CFU”.
For the compound “INWLHIAHHVHGML-NH2 [MH58911-NH2, INWLHIAHHVHGML-NH2]”, the “C. neoformans MIC” value in series [1] is over 250 µg/mL. In addition, in [2], the “C. gattii MIC” value was over 250 µg/mL. The IC50 at 24 h in series [3] is over 500 µg/mL; in [8] it was over 250 µg/mL.
As for “LKIAKKVK-OH [MK58911(4–11)-OH, LKIAKKVK-OH]”, the half-maximal inhibitory concentration (IC50) at 24 h in series [3] was over 500 µg/mL.
Take “INWLKIA-OH [MK58911(1–7)-OH, INWLKIA-OH]”: the IC50 at 24 h in series [3] was over 500 µg/mL.
